What was measured:
[1] = system: laboratory strain of B. subtilis; assay: Minimum inhibitory concentration (MIC) assay; assay type: cell-based, Bacillus subtilis; conditions: MHB, 10^5 CFU/well, peptide 0-50 μM, 37 °C, 20 h, OD600; average of n = 6 replicates from N = 3 biological experiments
Procedure: (§1) Figure 1 Minimum inhibitory concentrations (MICs) for the present peptide library against three clinical isolates of MDR P. aeruginosa and a laboratory strain of B. subtilis. Increasing concentrations of peptides were independently incubated with bacterial cells for 20 h. MIC was calculated based on bacterial growth in an untreated control and in 1% Triton. Data represent the average from n = 6 replicates from N = 3 biological experiments performed on different days; error bars depict the standard error of the mean. Asterisk denotes MIC values beyond the highest tested concentration (50 μM). TEXT PRINTED IN THE PICTURE: Ponericin W1: Isolate 004B1-3 MIC (μM): 1.17; Isolate 035B7-1 MIC (μM): 2.86; Isolate 014B2-1 MIC (μM): 4.68; B. subtilis MIC (μM): 0.65 | PonAmp: Isolate 004B1-3 MIC (μM): 1.56; Isolate 035B7-1 MIC (μM): 2.60; Isolate 014B2-1 MIC (μM): 3.12; B. subtilis MIC (μM): 0.52 | PonN: Isolate 004B1-3 MIC (μM): 1.56; Isolate 035B7-1 MIC (μM): 2.60; Isolate 014B2-1 MIC (μM): 5.20; B. subtilis MIC (μM): 1.56 | PonC: Isolate 004B1-3 MIC (μM): 1.30; Isolate 035B7-1 MIC (μM): 1.56; Isolate 014B2-1 MIC (μM): 2.86; B. subtilis MIC (μM): 1.30 | PonAmp 2A: Isolate 004B1-3 MIC (μM): 11.46; Isolate 035B7-1 MIC (μM): 50; Isolate 014B2-1 MIC (μM): 50; B. subtilis MIC (μM): 0.85 | PonN 2A: Isolate 004B1-3 MIC (μM): 1.82; Isolate 035B7-1 MIC (μM): 1.82; Isolate 014B2-1 MIC (μM): 5.20; B. subtilis MIC (μM): 2.08 | PonC 2A: Isolate 004B1-3 MIC (μM): 2.08; Isolate 035B7-1 MIC (μM): 3.64; Isolate 014B2-1 MIC (μM): 6.25; B. subtilis MIC (μM): 1.04 | PonAmp 3A: B. subtilis MIC (μM): 0.78 | PonN 3A: Isolate 004B1-3 MIC (μM): 4.69; Isolate 035B7-1 MIC (μM): 16.67; Isolate 014B2-1 MIC (μM): 23; B. subtilis MIC (μM): 8.30 | PonC 3A: Isolate 004B1-3 MIC (μM): 5.73; Isolate 035B7-1 MIC (μM): 33.33; Isolate 014B2-1 MIC (μM): 50; B. subtilis MIC (μM): 1.56 | PonAmp 4A: B. subtilis MIC (μM): 3.12 | PonN 4A: B. subtilis MIC (μM): 12.5 | PonC 4A: B. subtilis MIC (μM): 10.42
(§2) Three clinical isolates of MDR P. aeruginosa were previously obtained from CF patients with chronic infection at the Hospital for Sick Children [Research Ethics Board (REB) #1000019444] (Toronto, Canada) and selected for use in this work along with a laboratory strain of B. subtilis. Serial dilutions of peptides (10 μL) were prepared to achieve concentrations from 50 to 0 μM on a sterile 96-well clear bottom plate. Cells were resuspended in Mueller − Hinton Broth (MHB) and added at 10^5 CFU/well to achieve a final volume of 100 μL. Peptide and bacteria were allowed to incubate at 37 °C for 20 h. OD600 was measured at the end of the incubation period. Reports of MIC are background subtracted from an MHB-only control.

[2] = system: MDR P. aeruginosa clinical isolate 004B1-3; assay: Minimum inhibitory concentration (MIC) assay; assay type: cell-based, Pseudomonas aeruginosa; conditions: MHB, 10^5 CFU/well, peptide 0-50 μM, 37 °C, 20 h, OD600; average of n = 6 replicates from N = 3 biological experiments; asterisk = beyond 50 μM
Procedure: as §1
(§3) Clinical isolates of P. aeruginosa [Research Ethics Board (REB) #1000019444] were obtained with informed consent from CF patients with chronic infection followed at the Hospital for Sick Children (Toronto, Canada)[66]. Consent was obtained from a parent or legal guardian if not of age. All methods were performed in accordance with the relevant guidelines and regulations for research involving human subjects at the Hospital for Sick Children. Antimicrobial susceptibility testing was performed as per the Clinical Laboratory Standards Institute (CLSI)[67].
as §2

[3] = system: MDR P. aeruginosa clinical isolate 014B2-1; assay: Minimum inhibitory concentration (MIC) assay; assay type: cell-based, Pseudomonas aeruginosa; conditions: MHB, 10^5 CFU/well, peptide 0-50 μM, 37 °C, 20 h, OD600; average of n = 6 replicates from N = 3 biological experiments; asterisk = beyond 50 μM
Procedure: as §1, §3, §2

[4] = system: MDR P. aeruginosa clinical isolate 035B7-1; assay: Minimum inhibitory concentration (MIC) assay; assay type: cell-based, Pseudomonas aeruginosa; conditions: MHB, 10^5 CFU/well, peptide 0-50 μM, 37 °C, 20 h, OD600; average of n = 6 replicates from N = 3 biological experiments; asterisk = beyond 50 μM
Procedure: as §1, §3, §2

[5] = system: MDR isolates of P. aeruginosa; assay type: cell-based, Pseudomonas aeruginosa; conditions: for average MIC against MDR P. aeruginosa isolates: average over the clinical isolates
Text: We began our investigations by testing the antimicrobial efficacy of our peptide library against P. aeruginosa, an opportunistic gram-negative bacterium found in patients with cystic fibrosis (CF)[44],[45]. MDR isolates of P. aeruginosa obtained from chronically infected CF patients were independently challenged with the peptide library using a minimum inhibitory concentration assay (MIC, defined as the lowest drug concentration required to inhibit bacterial growth). […] A similar trend is observed among the 3A analogs. At four Leu-to-Ala substitutions, activity is universally lost as the sequences no longer meet the minimum hydrophobicity threshold for spontaneous membrane insertion.
Figure 1 Minimum inhibitory concentrations (MICs) for the present peptide library against three clinical isolates of MDR P. aeruginosa and a laboratory strain of B. subtilis. Increasing concentrations of peptides were independently incubated with bacterial cells for 20 h. MIC was calculated based on bacterial growth in an untreated control and in 1% Triton. Data represent the average from n = 6 replicates from N = 3 biological experiments performed on different days; error bars depict the standard error of the mean. Asterisk denotes MIC values beyond the highest tested concentration (50 μM). […]
Three clinical isolates of MDR P. aeruginosa were previously obtained from CF patients with chronic infection at the Hospital for Sick Children [Research Ethics Board (REB) #1000019444] […] OD600 was measured at the end of the incubation period. […]

[6] = system: LPS from P. aeruginosa 10; assay: Dansyl-polymyxin (DPX) displacement assay; assay type: binding, Pseudomonas aeruginosa; conditions: 3 μg/mL LPS saturated by 2.5 μM DPX, peptide added in 1 μM increments up to 10 μM, 10 mM Tris 10 mM NaCl pH 7.4; ex 340 / em 485 nm; n = 3
Text: We then sought to evaluate whether the relative trends in antimicrobial efficacy observed between Lys-clustered versus helical amphipathic sequences against gram-negative bacteria correlate to their degree of interaction with the OM. In doing so, we tested the binding affinity of our peptide library to LPS using a Dansyl-Polymyxin (DPX) displacement assay. DPX is a fluorescently-tagged derivative of Polymyxin B that highly associates with polyanionic sites on LPS[46]. Dansyl fluorescence reaches a maximum when surrounded by a hydrophobic environment (ex. lipid A moiety of LPS), thereby enabling us to track bound and unbound states of the LPS-DPX complex. First, we empirically determined the concentration of DPX required to completely saturate a set quantity of LPS in solution (Fig. 2). Upon identifying the saturation threshold, we assessed the ability of our peptide library to outcompete for LPS binding by displacing bound DPX. […] High sequence hydrophobicity is observed to supplement peptide propensity to displace DPX as the binding affinity of PonN and PonC to LPS progressively weakens with increasing Leu-to-Ala substitutions (Fig. 3b–d).
Lyophilized stocks of LPS from P. aeruginosa 10 (#L9143) and Dansyl-labelled polymyxin B (DPX) suspended in water (#SBR00029) were purchased from Sigma. 1 mg/mL LPS was prepared in water and stored at 4 °C until use. As described in detail elsewhere, saturation of the LPS-DPX complex was first determined on a Photon Technology International fluorometer using a 1 cm cuvette. Stepwise additions of DPX (in 0.25 μM increments up to 5 μM) was added to 3 μg/mL LPS suspended in 10 mM Tris 10 mM NaCl buffer at pH 7.4. DPX fluorescence was excited at 340 nm (2 nm slit width) and emission was recorded at 485 nm (5 nm slit width).
To measure DPX displacement, peptides were independently added at 1 μM increments (up to 10 μM) to preparations containing 3 μg/mL LPS saturated by 2.5 μM DPX. DPX fluorescence was read immediately upon peptide addition. Drops in fluorescence are interpreted as the removal of DPX from LPS due to competitive binding by peptide.

[7] = in vitro dye release; cited from earlier work
Text: In contrast, Lys-clustered PonN and PonC have been previously found to exclusively adopt random coils when exposed to liposomes composed of an approximate 3:1 ratio of PE:PG phospholipids, representative of the bacterial IM[37]. The latter configuration ostensibly deters peptide capacity for pore formation and/or carpeted assembly compared to helical amphipathic constructs such as PonAmp, which continues to display high helical propensity at both membrane interfaces. The comparatively shallow and/or transient nature of interaction between Lys-clustered constructs and the IM interface was f ...

[8] = system: human red blood cells; conditions: up to 50 μM; cited from earlier work
Text: In designing the Ponericin peptide library, our principal goal is to gauge systematically how the relative distribution of charged residues influences peptide-membrane interactions. As well, hydrophobicity is of particular interest to our investigations as earlier studies on the Ponericin W1 library reveal the highly toxic nature of native Ponericin W1 against mammalian red blood cells. Thus, stepwise Leu-to-Ala substitutions (up to four substitutions) were subsequently applied to each parent analog to simultaneously evaluate the contribution of overall sequence hydrophobicity. All peptide ...

H-KKKKKKWAGSAAIGAALPSVVGAFQ-NH2 [PonN 4A]
MIC, B. subtilis [1]: 12.5 µM

H-KKKKKKWAGSAAIGAALPSVVGLFQ-NH2 [PonN 3A]
MIC, Isolate 004B1-3 [2]: 4.69 µM
MIC, Isolate 014B2-1 [3]: 23 µM
MIC, Isolate 035B7-1 [4]: 16.67 µM
MIC, B. subtilis [1]: 8.30 µM

H-KKKKKKWAGSAAIGALLPSVVGLFQ-NH2 [PonN 2A]
MIC, Isolate 004B1-3 [2]: 1.82 µM
MIC, Isolate 014B2-1 [3]: 5.20 µM
MIC, Isolate 035B7-1 [4]: 1.82 µM
MIC, B. subtilis [1]: 2.08 µM
average MIC against MDR P. aeruginosa isolates [5]: ~ 3 μM

H-KKKKKKWLGSALIGALLPSVVGLFQ-NH2 [PonN]
MIC, Isolate 004B1-3 [2]: 1.56 µM
MIC, Isolate 014B2-1 [3]: 5.20 µM
MIC, Isolate 035B7-1 [4]: 2.60 µM
MIC, B. subtilis [1]: 1.56 µM
Displacement of DPX from LPS (change in DPX fluorescence) [6]: highly interrupt the LPS-DPX complex
Rupture of liposome mimetics of the bacterial IM (dye release) [7]: more gradually

H-WAGSAAIGAALPSVVGAFQKKKKKK-NH2 [PonC 4A]
MIC, B. subtilis [1]: 10.42 µM

H-WAGSAAIGAALPSVVGLFQKKKKKK-NH2 [PonC 3A]
MIC, Isolate 004B1-3 [2]: 5.73 µM
MIC, Isolate 014B2-1 [3]: 50 µM
MIC, Isolate 035B7-1 [4]: 33.33 µM
MIC, B. subtilis [1]: 1.56 µM

H-WAGSAAIGALLPSVVGLFQKKKKKK-NH2 [PonC 2A]
MIC, Isolate 004B1-3 [2]: 2.08 µM
MIC, Isolate 014B2-1 [3]: 6.25 µM
MIC, Isolate 035B7-1 [4]: 3.64 µM
MIC, B. subtilis [1]: 1.04 µM
average MIC against MDR P. aeruginosa isolates [5]: ~ 4 μM

H-WAKKAAKIGAKALPSVVKAFKGSGQ-NH2 [PonAmp 4A]
MIC, B. subtilis [1]: 3.12 µM

H-WAKKAAKIGAKALPSVVKLFKGSGQ-NH2 [PonAmp 3A]
MIC, B. subtilis [1]: 0.78 µM

H-WAKKAAKIGAKLLPSVVKLFKGSGQ-NH2 [PonAmp 2A]
MIC, Isolate 004B1-3 [2]: 11.46 µM
MIC, Isolate 014B2-1 [3]: 50 µM
MIC, Isolate 035B7-1 [4]: 50 µM
MIC, B. subtilis [1]: 0.85 µM
MIC against MDR P. aeruginosa isolates ([5]; three clinical isolates from CF patients, isolate not specified, 20 h, highest tested 50 μM): 50 µM

H-WLGSALIGALLPSVVGLFQKKKKKK-NH2 [PonC]
MIC, Isolate 004B1-3 [2]: 1.30 µM
MIC, Isolate 014B2-1 [3]: 2.86 µM
MIC, Isolate 035B7-1 [4]: 1.56 µM
MIC, B. subtilis [1]: 1.30 µM
Displacement of DPX from LPS (change in DPX fluorescence) [6]: highly interrupt the LPS-DPX complex
Rupture of liposome mimetics of the bacterial IM (dye release) [7]: more gradually

H-WLGSALKIGAKLLPSVVGLFKKKKQ-NH2 [Ponericin W1, reference compound]
MIC, Isolate 004B1-3 [2]: 1.17 µM
MIC, Isolate 014B2-1 [3]: 4.68 µM
MIC, Isolate 035B7-1 [4]: 2.86 µM
MIC, B. subtilis [1]: 0.65 µM
Displacement of DPX from LPS (change in DPX fluorescence) [6]: negligible change in fluorescence
Toxicity against mammalian red blood cells [8]: highly toxic

H-WLKKALKIGAKLLPSVVKLFKGSGQ-NH2 [PonAmp]
MIC, Isolate 004B1-3 [2]: 1.56 µM
MIC, Isolate 014B2-1 [3]: 3.12 µM
MIC, Isolate 035B7-1 [4]: 2.60 µM
MIC, B. subtilis [1]: 0.52 µM
Displacement of DPX from LPS (change in DPX fluorescence) [6]: negligible change in fluorescence
Rupture of liposome mimetics of the bacterial IM (dye release) [7]: ruptured instantaneously
